Source: patent publication US9669003B2, “Use of flavone and flavanone derivatives in preparation of sedative and hypnotic drugs” (priority 2012, dated 2017)
Marks after values point to notes of the source that are not given here.

Experiments:
Format in all cases: in vivo
Kunming mice [1] = test: Influence on hypnosis effect with pentobarbital sodium doses at the threshold (50 mg/kg i.p.); conditions: pentobarbital sodium 50 mg/kg i.p. 60 min later, x ± s, n = 10
How it was run: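 Kunming mice (10/group, half each sex) received compound in 0.5% CMC-Na intragastrically at 25, 50 or 100 mg/kg; 60 min later given 0.3% sodium pentobarbital 50 mg/kg i.p. Sleep latency and duration recorded by loss of righting reflex over 1 min; ANOVA and χ2 for sleep incidence.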

Kunming mice [2] = test: Influence on autonomic activity of normal mice (ZIL-2 mice autonomic activity meter, counts within 10 min); conditions: intragastric, x ± s, n = 10; for Times of activities in 1 h after drug administration/10 min: 1 h after administration; for Times of activities in 2 h after drug administration/10 min: 2 h after administration; for Times of activities in 24 h after drug administration/10 min: 24 h after administration
How it was run: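 Kunming mice (10 per group, half each sex) were dosed at 25, 50 or 100 mg/kg in 0.5% CMC-Na. Spontaneous activity counts over 10 min were recorded at 1 h, 2 h and 24 h post-dose. Groups were compared by ANOVA with Dunnett's test after Levene's check.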

Kunming mice [3] = test: Influence on hypnosis effect with pentobarbital sodium doses below the threshold (25 mg/kg i.p.); conditions: pentobarbital sodium 25 mg/kg i.p. 60 min later, sleep observed in 30 min, n = 10
How it was run: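 Kunming mice (10 per group, half female) given single oral doses of 25, 50 or 100 mg/kg in 0.5% CMC-Na; 60 min later pentobarbital sodium 25 mg/kg i.p. Sleep (righting reflex lost >1 min) scored within 30 min as percentage asleep, χ2 test.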

[4] = 25 mg/kg intragastric single dose
[5] = 50 mg/kg intragastric single dose
[6] = 100 mg/kg intragastric single dose
[7] = test drug 25 mg/kg intragastric single dose
[8] = test drug 50 mg/kg intragastric single dose
[9] = test drug 100 mg/kg intragastric single dose

SMILES	duration of sleep (Kunming mice [1]; [4]) [min]	time to sleep (Kunming mice [1]; [4]) [min]	duration of sleep (Kunming mice [1]; [5]) [min]	time to sleep (Kunming mice [1]; [5]) [min]	duration of sleep (Kunming mice [1]; [6]) [min]	time to sleep (Kunming mice [1]; [6]) [min]	Times of activities in 1 h after drug administration/10 min (Kunming mice [2]; 25 mg/kg)	Times of activities in 2 h after drug administration/10 min (Kunming mice [2]; 25 mg/kg)	Times of activities in 24 h after drug administration/10 min (Kunming mice [2]; 25 mg/kg)	Times of activities in 1 h after drug administration/10 min (Kunming mice [2]; 50 mg/kg)	Times of activities in 2 h after drug administration/10 min (Kunming mice [2]; 50 mg/kg)	Times of activities in 24 h after drug administration/10 min (Kunming mice [2]; 50 mg/kg)	Times of activities in 1 h after drug administration/10 min (Kunming mice [2]; 100 mg/kg)	Times of activities in 2 h after drug administration/10 min (Kunming mice [2]; 100 mg/kg)	Times of activities in 24 h after drug administration/10 min (Kunming mice [2]; 100 mg/kg)	Number of sleeping animals (Kunming mice [3]; [7])	rate of sleeping (%) (Kunming mice [3]; [7])	Number of sleeping animals (Kunming mice [3]; [8])	rate of sleeping (%) (Kunming mice [3]; [8])	Number of sleeping animals (Kunming mice [3]; [9])	also measured
COc1ccc(C2CC(=O)c3c(O)c(OC)c(OC)c(OC)c3O2)cc1 (stereo not drawn) [Example 42, 5-hydroxyl-6,7,8,4′-tetramethoxyl-flavanone]	58.90 ± 15.38	4.42 ± 1.65	69.37 ± 20.24	3.30 ± 1.32	78.53 ± 19.87	2.26 ± 1.28	231.2 ± 47.3 /10 min	233.2 ± 35.1 /10 min	313.5 ± 68.2 /10 min	154.5 ± 43.2 /10 min	145.3 ± 41.3 /10 min	310.3 ± 62.5 /10 min	108.5 ± 48.5 /10 min	104.3 ± 42.5 /10 min	302.6 ± 69.3 /10 min	5	50** %	8	80*** %	9	rate of sleeping (%) (Kunming mice [3]; [9]): 90*** %
CC=Cc1c(C(=O)O)cc2c(=O)cc(-c3ccc(F)c(C#N)c3)oc2c1C(=O)O [Example 34]	37.89 ± 15.21	4.39 ± 1.61	44.75 ± 21.85	3.87 ± 1.42	54.77 ± 19.67	3.45 ± 1.38	292.2 ± 49.3 /10 min	276.2 ± 43.8 /10 min	313.2 ± 75.4 /10 min	249.4 ± 62.4 /10 min	263.3 ± 59.3 /10 min	334.7 ± 72.3 /10 min	127.8 ± 28.6 /10 min	243.9 ± 40.5 /10 min	298.7 ± 81.8 /10 min	2	20%	4	40* %	6	rate of sleeping (%) (Kunming mice [3]; [9]): 60** %
COc1ccc(-c2cc(=O)c3c(O)cc(OC)c(OC)c3o2)cc1O [Example 2, 5,3′-dihydroxyl-7,8,4′-trimethoxyl-flavone]	35.56 ± 15.89	6.61 ± 2.22	39.23 ± 23.45	4.95 ± 2.23	53.55 ± 22.04	3.92 ± 1.12	320.1 ± 54.7 /10 min	293.5 ± 40.8 /10 min	302.7 ± 77.5 /10 min	295.3 ± 41.8 /10 min	254.2 ± 41.1 /10 min	306.2 ± 90.6 /10 min	281.3 ± 47.6 /10 min	223.5 ± 45.7 /10 min	311.4 ± 80.3 /10 min	5	50** %	6	60** %	7	rate of sleeping (%) (Kunming mice [3]; [9]): 70** %
COc1ccc(C2CC(=O)c3cc(CCS(=O)(=O)O)c(C4CCNC4)c(N)c3O2)cc1SC#N (stereo not drawn) [Example 55]	37.98 ± 13.71	4.03 ± 1.97	58.53 ± 11.96	3.52 ± 2.22	65.94 ± 14.95	3.21 ± 2.01	232.5 ± 66.1 /10 min	229.8 ± 75.0 /10 min	295.2 ± 89.3 /10 min	138.3 ± 67.6 /10 min	135.6 ± 69.2 /10 min	297.5 ± 81.0 /10 min	110.8 ± 55.7 /10 min	103.8 ± 60.9 /10 min	289.8 ± 89.7 /10 min	5	50** %	6	60** %	9	rate of sleeping (%) (Kunming mice [3]; [9]): 90*** %
COc1c(O)cc(C2CC(=O)c3c(O)cc(O)cc3O2)cc1C(=O)O (stereo not drawn) [Example 50]	22.71 ± 26.17	5.41 ± 2.17	28.68 ± 27.56	5.07 ± 2.34	65.35 ± 46.27	3.25 ± 1.16	319.2 ± 55.4 /10 min	290.6 ± 41.2 /10 min	303.2 ± 78.6 /10 min	297.5 ± 42.5 /10 min	253.5 ± 40.4 /10 min	304.7 ± 92.8 /10 min	279.4 ± 48.3 /10 min	224.7 ± 46.3 /10 min	312.4 ± 79.1 /10 min	2	20%	4	40* %	7	rate of sleeping (%) (Kunming mice [3]; [9]): 70** %
O=C1CC(c2ccc(O)c(O)c2)Oc2cc(O)cc(O)c21 (stereo not drawn) [Example 71]	30.48 ± 22.67	5.55 ± 1.83	36.63 ± 20.19	3.73 ± 1.39	56.62 ± 24.57	3.82 ± 1.40	301.5 ± 58.2 /10 min	267.8 ± 32.9 /10 min	318.0 ± 66.9 /10 min	278.9 ± 45.0 /10 min	263.0 ± 46.3 /10 min	322.9 ± 81.4 /10 min	249.3 ± 41.3 /10 min	245.8 ± 39.6 /10 min	325.7 ± 60.9 /10 min	3	30%	5	50* %	6	rate of sleeping (%) (Kunming mice [3]; [9]): 60** %
